Measurements reported in US20260234157A1, “COMPOUND AND METHOD FOR TARGETED DEGRADATION OF ANDROGEN RECEPTOR” (Gan & Lee Pharmaceuticals Co., Ltd., priority 2023, published 2026).
Substitutions are numbered along the chain they refer to. Where two headings read alike, the source gives them in different places.

Tests used:
Assay type in all cases: cell-based
VCaP cells = assay: Inhibition of proliferation of VCaP cells (WST-8); details: Homo sapiens, read-out: IC50 for inhibiting the proliferation of VCaP cells
Protocol: The inhibitory activity of the compounds disclosed in the present disclosure on the proliferation of VCaP cells
On the first day of the experiment, […] were inoculated in 96 well plates at a density of 15000 cells per well using DMEM medium containing 10% fetal bovine serum, with 100 μL of cell suspension per well. The cells were cultured in a cell culture incubator with 5% CO2 at 37° C. overnight. […] On the ninth day, 96 well plates were taken out, and 20 μL of WST-8 (Beytime, C0040) reagent was added to each well.

LNCaP FGC cells = assay: Inhibition of proliferation of LNCaP cells (WST-8); details: Homo sapiens, LNCaP, 96 h
Protocol: The cells were cultured in a cell culture incubator with 5% CO2 at 37° C. overnight. […] On the sixth day, 96 well plates were taken out, and 20 μL of WST-8 (Beytime, C0040) reagent was added to each well.

AR protein [1] = molecular target: T1, AR protein (Homo sapiens, UniProt P10275); assay: Degradation of AR protein in VCaP cells (Western blot); details: 8 hours; for inhibition at 0.01 µM: compound at 10 nM, read-out: Degradation rate of the AR protein in VCaP cells, 10 nM (%); for inhibition at 0.1 µM: compound at 100 nM, read-out: Degradation rate of the AR protein in VCaP cells, 100 nM (%)
T1 construct: degradation activity of the compounds disclosed in the present disclosure on AR protein in VCaP cells; host or cells: VCaP
T1 sequence (P10275 1-920): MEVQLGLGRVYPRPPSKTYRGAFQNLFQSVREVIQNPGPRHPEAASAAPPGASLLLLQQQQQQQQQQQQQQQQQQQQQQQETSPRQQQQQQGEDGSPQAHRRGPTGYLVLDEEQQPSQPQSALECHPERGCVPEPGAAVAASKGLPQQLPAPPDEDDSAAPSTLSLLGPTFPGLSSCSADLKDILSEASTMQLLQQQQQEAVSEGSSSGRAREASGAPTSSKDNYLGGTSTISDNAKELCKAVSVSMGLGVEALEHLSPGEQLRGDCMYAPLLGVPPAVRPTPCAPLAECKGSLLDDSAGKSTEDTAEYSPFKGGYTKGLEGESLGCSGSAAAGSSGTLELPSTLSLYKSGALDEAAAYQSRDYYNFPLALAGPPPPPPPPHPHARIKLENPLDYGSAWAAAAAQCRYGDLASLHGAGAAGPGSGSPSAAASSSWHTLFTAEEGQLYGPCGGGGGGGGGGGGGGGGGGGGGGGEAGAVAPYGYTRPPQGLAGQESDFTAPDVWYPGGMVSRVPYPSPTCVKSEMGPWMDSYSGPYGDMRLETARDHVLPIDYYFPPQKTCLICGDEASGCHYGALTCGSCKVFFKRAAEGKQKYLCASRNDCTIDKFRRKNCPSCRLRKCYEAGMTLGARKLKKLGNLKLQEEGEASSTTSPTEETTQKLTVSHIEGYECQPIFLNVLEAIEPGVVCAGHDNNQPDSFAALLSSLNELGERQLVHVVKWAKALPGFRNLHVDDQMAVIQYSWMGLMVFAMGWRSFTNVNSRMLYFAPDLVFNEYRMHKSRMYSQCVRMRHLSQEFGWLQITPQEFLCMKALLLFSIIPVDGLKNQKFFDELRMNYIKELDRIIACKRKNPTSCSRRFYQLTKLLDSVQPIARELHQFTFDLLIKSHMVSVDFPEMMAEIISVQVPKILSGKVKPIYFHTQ
In short: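 VCaP cells treated with compound alongside solvent controls for 8 h, then lysed in RIPA and protein quantified by BCA. AR detected by SDS-PAGE/Western blot with infrared imaging. Degradation rate calculated from band grayscale, with GAPDH as internal reference.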

AR protein [2] = molecular target: T2, AR protein (Homo sapiens, UniProt P10275, T878A); assay: Degradation of AR protein in LNCaP cells (Western blot); details: for inhibition at 0.01 µM: read-out: Degradation rates of the AR protein in LNCaP cells, 10 nM (%); for inhibition at 0.1 µM: read-out: Degradation rates of the AR protein in LNCaP cells, 100 nM (%)
T2 construct: degradation activity of the compounds disclosed in the present disclosure on AR protein in LNCaP cells; host or cells: LNCaP FGC
T2 sequence (P10275 1-920 T878A): T1 sequence (P10275 1-920) with T878A
In short: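 AR assessed by SDS-PAGE/Western blot with infrared imaging; band greyscale normalised to GAPDH gave percent degradation.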

[3] = read-out: IC50 for inhibiting the proliferation of LNCaP cells, LNCaP FGC cells, 96 hours, WST-8 absorbance at 450 nm
[4] = VCaP cells, 168 hours, WST-8 absorbance at 450 nm
[5] = LNCaP FGC cells, 96 hours, WST-8 absorbance at 450 nm, read-out: IC50 for inhibiting the proliferation of LNCaP cells

Row | Compound | IC50 (VCaP cells; VCaP, 168 h) [µM] | IC50 (LNCaP FGC cells; [3]) [µM] | further results
1 | CC1(C)C(=O)N(c2ccc(C#N)c(C(F)(F)F)c2)C(=S)N1c1ccc(C(=O)N2CC3(CC(N4CCC5(CCc6cc7c(cc6O5)C(=O)N(C5CCC(=O)NC5=O)C7=O)CC4)C3)C2)c(F)c1 (centres unmarked) [Compound 100] | 0.62 | 27.9 | –
2 | CC1(C)C(=O)N(c2ccc(C#N)c(C(F)(F)F)c2)C(=S)N1c1ccc(C(=O)N2CC[C@@H](CN3CCC4(CC3)COc3cc5c(cc3C4)C(=O)N(C3CCC(=O)NC3=O)C5=O)C2)c(F)c1 (some centres unmarked) [Compound 83] | 9.73 | 7.06 | –
3 | CC1(C)C(=O)N(c2ccc(C#N)c(C(F)(F)F)c2)C(=S)N1c1ccc(C(=O)N2CCC3(CCC(N4CCC5(CC4)COc4cc6c(cc4C5)C(=O)N(C4CCC(=O)NC4=O)C6=O)CC3)CC2)c(F)c1 (centres unmarked) [Compound 113] | 2.81 | 5.56 | –
4 | CC1(C)C(=O)N(c2ccc(C#N)c(C(F)(F)F)c2)C(=S)N1c1ccc(C(=O)N2CCC(F)(CN3CC4(CCc5cc6c(cc5O4)C(=O)N(C4CCC(=O)NC4=O)C6)C3)CC2)c(F)c1 (centres unmarked) [Compound 81] | 0.03 | 3.86 | –
5 | N#Cc1ccc(O[C@H]2CC[C@H](NC(=O)c3ccc(N4CC(N5CCC6(CCc7cc8c(cc7O6)C(=O)N(C6CCC(=O)NC6=O)C8)CC5)C4)nn3)CC2)cc1Cl (some centres unmarked) [Compound 46] | 0.11 | – | inhibition at 0.01 µM (AR protein [1]): 39%; inhibition at 0.1 µM (AR protein [1]): 59%; inhibition at 0.01 µM (AR protein [2]; LNCaP, 8 h): 35%; inhibition at 0.1 µM (AR protein [2]; LNCaP, 8 h): 47%
6 | COC1(CN2CC3(CCc4cc5c(cc4O3)C(=O)N(C3CCC(=O)NC3=O)C5=O)C2)CCN(C(=O)c2ccc(N3C(=S)N(c4ccc(C#N)c(C(F)(F)F)c4)C(=O)C3(C)C)cc2F)CC1 (centres unmarked) [Compound 88] | – | – | IC50 (VCaP cells; [4]): 0.17 µM; IC50 (LNCaP FGC cells; [5]): 0.53 µM
7 | CC1(CN2CCC3(CC2)COc2cc4c(cc2C3)C(=O)N(C2CCC(=O)NC2=O)C4=O)CCN(C(=O)c2ccc(N3C(=S)N(c4ccc(C#N)c(C(F)(F)F)c4)C(=O)C3(C)C)cc2F)CC1 (centres unmarked) [Compound 114] | 3.29 | 7.63 | –
8 | CC1(C)C(=O)N(c2ccc(C#N)c(C(F)(F)F)c2)C(=S)N1c1ccc(C(=O)N2CC[C@H](CN3CCC4(CC3)COc3cc5c(cc34)C(=O)N(C3CCC(=O)NC3=O)C5=O)C2)c(F)c1 (some centres unmarked) [Compound 125] | 9.29 | 6.97 | –
9 | CC1(C)C(=O)N(c2ccc(C#N)c(C(F)(F)F)c2)C(=S)N1c1ccc(C(=O)N2CCC(CN3CCN(c4cc5c(cc4F)C(=O)N(C4CCC(=O)NC4=O)C5=O)CC3)CC2)c(F)c1 (centres unmarked) [Compound 87] | – | – | IC50 (VCaP cells; [4]): 4.19 µM; IC50 (LNCaP FGC cells; [5]): 5.16 µM
10 | CC1(C)C(=O)N(c2ccc(C#N)c(C(F)(F)F)c2)C(=S)N1c1ccc(C(=O)N2CC3(CC(N4CCC5(CC4)COc4cc6c(cc45)C(=O)N(C4CCC(=O)NC4=O)C6=O)C3)C2)c(F)c1 (centres unmarked) [Compound 92] | 4.09 | – | –
11 | CC1(C)C(=O)N(c2ccc(C#N)c(C(F)(F)F)c2)C(=S)N1c1ccc(C(=O)N2CC(N3CCC4(CCc5cc6c(cc5O4)C(=O)N(C4CCC(=O)NC4=O)C6=O)CC3)C2)c(F)c1 (centres unmarked) [Compound 102] | 3.88 | – | –
12 | CC1(C)C(=O)N(c2ccc(C#N)c(C(F)(F)F)c2)C(=S)N1c1ccc(C(=O)N2CCC3(CC2)CC(N2CCC4(CC2)COc2cc5c(cc2C4)C(=O)N(C2CCC(=O)NC2=O)C5=O)C3)c(F)c1 (centres unmarked) [Compound 123] | 3.38 | 2.71 | –
13 | CC1(C)C(=O)N(c2ccc(C#N)c(C(F)(F)F)c2)C(=S)N1c1ccc(C(=O)N2CCC3(CC2)CC(N2CCC4(CCc5cc6c(cc5O4)C(=O)N(C4CCC(=O)NC4=O)C6=O)CC2)C3)c(F)c1 (centres unmarked) [Compound 103] | – | – | IC50 (VCaP cells; [4]): 2.74 µM
14 | CC1(C)C(=O)N(c2ccc(C#N)c(C(F)(F)F)c2)C(=S)N1c1ccc(C(=O)N2CC(N3CCC4(CCc5cc6c(cc5O4)C(=O)N(C4CCC(=O)NC4=O)C6)CC3)C2)c(F)c1 (centres unmarked) [Compound 105] | 2.96 | – | –
15 | CC1(C)C(=O)N(c2ccc(C#N)c(C(F)(F)F)c2)C(=S)N1c1ccc(C(=O)N2CCC(CN3CCC4(CC3)COc3cc5c(cc3C4)C(=O)N(C3CCC(=O)NC3=O)C5=O)CC2)c(F)c1 (centres unmarked) [Compound 82] | 4.26 | 3.39 | –
16 | CC1(C)C(=O)N(c2ccc(C#N)c(C(F)(F)F)c2)C(=S)N1c1ccc(C(=O)N2CCC(CN3CCC4(CCc5cc6c(cc5O4)C(=O)N(C4CCC(=O)NC4=O)C6=O)CC3)CC2)c(F)c1 (centres unmarked) [Compound 99] | 3.8 | – | –
17 | CC1(C)C(=O)N(c2ccc(C#N)c(C(F)(F)F)c2)C(=S)N1c1ccc(C(=O)N2CCC(N3CCC4(CCc5cc6c(cc5O4)C(=O)N(C4CCC(=O)NC4=O)C6=O)CC3)CC2)c(F)c1 (centres unmarked) [Compound 101] | 3.75 | – | –
18 | COc1cc(O[C@H]2CC[C@H](NC(=O)c3cnc(N4CCC(CN5CC6(CCc7cc8c(cc7O6)C(=O)N(C6CCC(=O)NC6=O)C8=O)C5)(OC)CC4)nc3)CC2)ccc1C#N (some centres unmarked) [Compound 232] | – | – | inhibition at 0.01 µM (AR protein [1]): 37%; inhibition at 0.1 µM (AR protein [1]): 43%; IC50 (VCaP cells; [4]): 4.41 µM; inhibition at 0.01 µM (AR protein [2]; LNCaP cells, compound 10 nM, 8 hours, Western blot grayscale, GAPDH internal reference): 33%; inhibition at 0.1 µM (AR protein [2]; LNCaP cells, compound 100 nM, 8 hours, Western blot grayscale, GAPDH internal reference): 36%
19 | CC1(C)C(=O)N(c2ccc(C#N)c(C(F)(F)F)c2)C(=S)N1c1ccc(C(=O)N2CCC(F)(CN3CCC4(CCc5cc6c(cc5O4)C(=O)N(C4CCC(=O)NC4=O)C6=O)CC3)CC2)c(F)c1 (centres unmarked) [Compound 97] | 1.3 | – | –
20 | CC1(C)C(=O)N(c2ccc(C#N)c(C(F)(F)F)c2)C(=S)N1c1ccc(C(=O)N2CC(CN3CCC4(CCc5cc6c(cc5O4)C(=O)N(C4CCC(=O)NC4=O)C6=O)CC3)C2)c(F)c1 (centres unmarked) [Compound 84] | 4.57 | – | –
